Patent US7671057B2, “Therapeutic agent for type II diabetes comprising protease-inhibiting compound” (Ono Pharmaceutical Co., Ltd., priority 2004, dated 2010)

What was measured:
Type in all cases: in vivo, mouse
[1] = system: KK-A^y/Ta Jcl mice; assay: Glucose loading test after repeated administration for 14 days (Example 1)
Method: (§1) As from Day 14 afterwards, the animals after being fasted for 18 hours or more were loaded orally with a glucose solution (2 g/kg, 10 mL/kg), whereby the blood-sugar levels were measured before, and 120 min. after, the said glucose loading. Each of the compounds was given orally to the animals 3 hours prior to the glucose loading, and the whole blood was drawn from each of the animals under anesthesia. Each of the said blood samples was centrifuged to yield a blood plasma, and the resultant blood plasmas were all preserved under freezing in a ultra-low-temperature freezer for subsequent use in the below-described measurements.
(§2) The blood-sugar level, total cholesterol level (hereinafter referred to briefly as “TC level”) and triglyceride level (hereinafter referred to briefly as “TG level”) were detected individually in accordance with the hexokinase/G-6-PDH method, enzyme method and GPO/HDAOS method, and measured with use of Biochemical Auto-Analyzer (Model AU 400, manufactured by Olympus Co. of Japan). The plasma insulin level (hereinafter referred to briefly as “IRI level”) and the plasma glucagon level (hereinafter referred to briefly as “IRG level”) were detected individually with the ELISA method (Lebisinsulin Mouse Insulin Kit, produced by K.K. Shibayagi of Japan) and the ELISA method (YK090 Glucagon EIA Kit, produced by K.K. Yanaihara Kenkyuu-sho of Japan), followed by measurement with use of a plate reader (Immuno Mini NJ-2300, Nalge Nunc International K.K. of Japan).
(§3) The blood-sugar, TC, TG, IRI and IRG levels and the body weight were expressed as a mean value±standard deviation as calculated for each group of animals. With reference to the significance test between the group treated through administration of the medium and each group treated through administration of the compound, the F test was effected to analyze the data and then, the Student's t-test and Aspin-Welch's t-test were used in cases where the variance between the two groups was determined to be equal and unequal, respectively. Referring to the significance level, less than 5% (p<0.05) was considered significant, and the significance level was expressed as divided into the two events of less than 1% (**: p<0.01) and less than 5% (*: p<0.05).

[2] = Body weight after repeated administration for 14 days (Example 1); conditions: after repeated administration for 14 consecutive days
Method: Following the above-described single administration, the repeated, once-a-day forced oral administration of each compound was performed at the same daily dose for the total period of 14 consecutive days. […] The blood-sugar, TC, TG, IRI and IRG levels and the body weight were expressed as a mean value±standard deviation as calculated for each group of animals. With reference to the significance test between the group treated through administration of the medium and each group treated through administration of the compound, the F test was effected to analyze the data and then, the Student's t-test and Aspin-Welch's t-test were used in cases where the variance between the two groups was determined to be equal and unequal, respectively.

[3] = system: KK-A^y/Ta Jcl mice; assay: Weights of pancreas, liver and kidney at autopsy (Example 3)
Method: On Day 28 of administration of each compound in the form of an admixture with a food, furthermore, each animal after blood had been drawn from the tail vein was treated through individual forced oral administration of the Test Compound 2 in the form of the solutions individually consisting of 0.2, 0.6, 2.0 and 6.0 mg/mL-0.5% CMC suspension in each 5 mL/kg portion, as well as the Control Compound 1 in the form of the solutions individually consisting of 2.0 and 6 mg/mL-0.5% CMC suspension in each 5 ml/kg portion, followed by blood drawing 30 min. later and autopsy to thereby measure the weights of the pancreas, liver and kidney, whereby the control group was treated through administration of the 0.5% CMC suspension in the same portion.

[4] = system: KK-A^y/Ta Jcl mice; assay: Plasma TC, TG, blood-sugar, IRI and IRG levels 3 hours subsequent to the glucose-loading test (Example 1); conditions: 3 hours subsequent to glucose-loading test, after 14 days 30 mg/kg p.o.
Method: as §1, §2, §3

[5] = autopsy Day 28, Dose 16.8 (g/100 g-food)

For CCc1ccc(CCOc2ccc(CC3SC(=O)NC3=O)cc2)nc1 (centres unmarked) [Control Compound 1, 5-{4-[2-(5-ethylpyridine-2-yl)ethoxy]benzyl}-1,3-thiazolidine-2,4-dione, reference compound], which “Blood-sugar level before glucose loading” value ([1]; after 14 days 30 mg/kg p.o., fasted, compound 3 hours prior to loading) is on record?
The value was 156.9 ± 5.3 mg/dL.

What about the “Blood-sugar level 120 Min. after glucose loading” value ([1]; after 14 days 30 mg/kg p.o., glucose 2 g/kg orally) of the same compound?
Its value is 236.9 ± 19.6 mg/dL.

And the “Blood-sugar lowering action in the glucose loading test vs medium control group (in words)” value ([1]; after repeated administration for 14 consecutive days)?
The value was “not observed to produce any significant difference”.

What about the “Effect on mouse body-weight vs control medium group (in words)” value [2] of the same compound?
The value was “significant elevation in the body weight”.

And the Body weight ([2]; 30 mg/kg p.o.)?
The Body weight was 31.7 ± 0.8 g.

And the “Weight of the liver (in words)” value ([3]; autopsy Day 28)?
The value was “raise further the weight of the liver”.

And the “Weight Kidney” value [3, 5]?
Its value is 0.49 ± 0.02 g.

What about the “Weight Liver” value [3, 5] of the same compound?
Its value is 2.62 ± 0.11 g.

And the “Weight Pancreas” value [3, 5]?
Its value is 0.36 ± 0.01 g.

And the Blood-sugar level [4]?
Its Blood-sugar level is 289.9 ± 20.6 mg/dL.

And the IRG (plasma glucagon level) [4]?
Its IRG (plasma glucagon level) is 488 ± 45.8 pg/mL.

And the “IRI (plasma insulin level)” value [4]?
The value was 1.25 ± 0.28 ng/mL.

What about the TC [4] of the same compound?
The TC was 114.6 ± 4.8 mg/dL.

What about the TG [4] of the same compound?
The TG was 72.7 ± 4.7 mg/dL.
